Test results from paper PMC4336331, “Novel Receptor-Derived Cyclopeptides to Treat Heart Failure Caused by Anti-β1-Adrenoceptor Antibodies in a Human-Analogous Rat Model” (PLoS ONE, 2015).
Where two headings read alike, the source gives them in different places. Peptide text beside a SMILES is read from it.

Legend:
anti-β1EC2-antibodies = assay: Free anti-β1EC2-titers by ELISA, therapy-study; type: in vivo, Lewis/CrlBR rats; details: for decline in anti-β1EC2-titers: 1.0 mg/kg i.v. every 4 weeks, irrespective of bisoprolol co-treatment (Fig. 2F)
Procedure: (§1) In brief, n = 76 two months old Lewis/CrlBR rats were either s.c. immunised with 50 μg β1EC2/GST-FP, or n = 38 rats were control-injected with 0.9% NaCl (t = 0). To maintain high anti-β1EC2-titers, all immunised rats were boosted with β1EC2/GST-FP (or 0.9% NaCl) every month over 20 months as previously described. Application of the different linear or cyclic β1-AR peptides (corresponding to the primary AA-sequence of either the first (β1EC1) or the 2nd extra-cellular β1-AR loop (β1EC2)) or the β1-receptor blocker bisoprolol was initiated either 6 weeks after the 1st immunisation (i.e. 15 days after the 1st boost, prevention-study), or 8.5 months after the 1st immunisation (therapy-study).
(TIF) Click here for additional data file.

[1] = system: anti-β1EC2-induced heart failure (β1EC2/GST-FP-immunised rats); assay: Left heart catheterisation (haemodynamics), prevention-study; type: in vivo, Lewis/CrlBR rats; details: LV catheterisation month 16, mean ±SEM
Procedure: as §1

[2] = system: anti-β1EC2-induced heart failure (β1EC2/GST-FP-immunised rats); assay: Left heart catheterisation (haemodynamics), therapy-study; type: in vivo, Lewis/CrlBR rats; details: LV catheterisation month 20, mean ±SEM
Procedure: as §1

[3] = system: anti-β1EC2-induced heart failure (β1EC2/GST-FP-immunised rats); assay: Relative organ wet weights and body weight, therapy-study; details: month 20, mean ±SEM
Procedure: as §1
After the hearts all other relevant inner organs (e.g., lung, liver, spleen, kidneys, brain, and eyes) were removed, rinsed with ice-cold PBS, weighed, sectioned, and fixed for further histologic analysis.

[4] = system: anti-β1EC2-induced heart failure (β1EC2/GST-FP-immunised rats); details: therapy-study, end of study, mean ±SEM
Procedure: as §1
From paraffin-embedded heart preparations cavity- and wall-dimensions were determined by computer-aided analysis of H&E-stained mid-ventricular 2μm-sections as previously described. H&E-stained paraffin-sections also served to quantify damaged and fibrotic cardiac areas (scars). For detection of mast cells, deparaffinised cardiac sections were stained with acidified (pH<2.5) toluidine blue 0.1% (Sigma). The number of toluidine-positive cells was normalized to square millimeter of cardiac tissue. TUNEL-positive cells were quantified in 2μm mid-ventricular paraffin-sections using a TMR Red in Situ Death Detection Kit (Roche, Basel, Switzerland). Only the total number of TUNEL-postive cells/section was determined without further differentiation of the specific apoptotic cell type (e.g., fibroblasts, endothelial cells, cardiomyocytes).

[5] = system: anti-β1EC2-induced heart failure (β1EC2/GST-FP-immunised rats); assay: Echocardiography and catheterisation, cardiomyopathic phenotype, therapy-study; type: in vivo, Lewis/CrlBR rats; details: echocardiography and catheterisation (Fig. 2G, H; S2 Fig.)
Procedure: as §1
In brief, the rats were lightly anaestetised (30 mg/kg ketamine-HCl and 5 mg/kg xylazine i.p.), shaved (chest), and placed supine on a special table. M-mode tracings were recorded at baseline (before immunisation), and subsequently every four months in the parasternal long and short axis views according to the guidelines of the American Society for Echocardiography. Pulsed-wave Doppler spectra were recorded from the apical five-chamber view and the velocity-time integral (VTI) of the transaortic flow served to calculate cardiac output (CO [ml/min] = Aortic VTI x (π [LV-outflow tract diameter/2]^2) x bpm).

[6] = immunised anti-β1EC2-positive rats, from 6 weeks after 1st immunisation EC2-CP 1.0 mg/kg i.v. every 4 weeks or bisoprolol 15 mg/kg/day orally over 12 months
[7] = non-immunised 0.9% NaCl-injected rats, EC2-CP 1.0 mg/kg i.v. every 4 weeks or bisoprolol 15 mg/kg/day orally over 12 months
[8] = immunised anti-β1EC2-positive rats, from 8.5 months after 1st immunisation peptides 1.0 mg/kg i.v. every 4 weeks, bisoprolol 15 mg/kg/day orally, over 12 months

## CC(C)[C@@H]1NC(=O)[C@H](Cc2ccccc2)NC(=O)[C@H](CC(=O)O)NC(=O)[C@H](CS)NC(=O)[C@H](CS)NC(=O)[C@H](CCCCN)NC(=O)[C@@H]2CCCN2C(=O)[C@H](CC(=O)O)NC(=O)[C@H](CC(N)=O)NC(=O)[C@H](Cc2ccc(O)cc2)NC(=O)[C@H](CS)NC(=O)[C@H](CCCNC(=N)N)NC(=O)[C@H](CCCNC(=N)N)NC(=O)[C@H](C)NC(=O)[C@H](CCC(=O)O)NC(=O)[C@H](CC(=O)O)NC(=O)[C@H](CO)NC(=O)[C@H](CCC(=O)O)NC(=O)[C@H](C)NC(=O)[C@H](CCCNC(=N)N)NC(=O)[C@H](C)NC(=O)[C@H](CCC(N)=O)NC(=O)CNC(=O)[C@H](CCCNC(=N)N)NC(=O)[C@H](CC(N)=O)NC(=O)[C@H]([C@@H](C)O)NC1=O [β1EC2-CP] (cyclo(AESDEARRCYNDPKCCDFVTNRGQAR))
anti-β1EC2-antibodies; after 4–5 injections
  decline in anti-β1EC2-titers: > 90%
anti-β1EC2-antibodies; after two injections
  decline in anti-β1EC2-titers: > 70%
anti-β1EC2-antibodies; despite monthly antigen-boosts
  steady state antibody-levels in % of the titers at initiation of therapy: less than 15%
[1]; [6]
  -dP/dt (relaxation): 5887 ±93 mmHg/s
  HF (heart frequence): 226 ±5 bpm
  LVEDP (LV end-diastolic pressure): 10.4 ±0.6 mmHg
  LVSP (maximal systolic LV-pressure): 127 ±4 mmHg
[1]; [7]
  -dP/dt (relaxation): 5986 ±288 mmHg/s
  HF (heart frequence): 232 ±7 bpm
  LVEDP (LV end-diastolic pressure): 10.1 ±1.4 mmHg
  LVSP (maximal systolic LV-pressure): 135 ±7 mmHg
[2]; [8]
  -dP/dt (relaxation): 5228 ±166 mmHg/s
  HF (heart frequence): 217 ±3 bpm
  LVEDP (LV end-diastolic pressure): 10.0 ± 1.0 mmHg
  LVSP (maximal systolic LV-pressure): 126 ±4 mmHg
[2]; [7]
  -dP/dt (relaxation): 5502 ±248 mmHg/s
  HF (heart frequence): 221 ±7 bpm
  LVEDP (LV end-diastolic pressure): 9.2 ± 1.1 mmHg
  LVSP (maximal systolic LV-pressure): 121 ±8 mmHg
[3]; [8]
  Heart, relative (wet) weight: 2.20 ± 0.09 mg/g
  Kidney L, relative (wet) weight: 2.29 ± 0.06 mg/g
  Kidney R, relative (wet) weight: 2.25 ± 0.05 mg/g
  Liver, relative (wet) weight: 19.83 ± 0.50 mg/g
  Lung, relative (wet) weight: 2.26 ± 0.16 mg/g
  Spleen, relative (wet) weight: 1.23 ± 0.04 mg/g
  Weight (body weight): 673 ± 12 g
[3]; [7]
  Heart, relative (wet) weight: 2.15 ± 0.08 mg/g
  Kidney L, relative (wet) weight: 2.19 ± 0.08 mg/g
  Kidney R, relative (wet) weight: 2.22 ± 0.08 mg/g
  Liver, relative (wet) weight: 18.9 ± 0.55 mg/g
  Lung, relative (wet) weight: 2.08 ± 0.07 mg/g
  Spleen, relative (wet) weight: 1.18 ± 0.03 mg/g
  Weight (body weight): 695 ± 27 g
[4]; [8]
  IVS (thickness of the inter-ventricular septum): 1.7 ±0.1 mm
  LVA (total LV-area): 65.2 ±2.5 mm2
  LVCA (LV-cavity area): 25.6 ±1.0 mm2
  LVWA (LV wall area): 39.6 ±1.7 mm2
  PW (posterior wall thickness): 1.8 ±0.1 mm
[4]; [7]
  IVS (thickness of the inter-ventricular septum): 1.7 ±0.1 mm
  LVA (total LV-area): 57.4 ±0.7 mm2
  LVCA (LV-cavity area): 21.3 ±0.1 mm2
  LVWA (LV wall area): 36.1 ±0.7 mm2
  PW (posterior wall thickness): 1.9 ±0.1 mm
[5]
  cardiomyopathic phenotype, in words: almost fully reversed

## CC(C)[C@H](NC(=O)[C@H](Cc1ccccc1)NC(=O)[C@H](CC(=O)O)NC(=O)[C@H](CS)NC(=O)[C@H](CS)NC(=O)[C@H](CCCCN)NC(=O)[C@@H]1CCCN1C(=O)[C@H](CC(=O)O)NC(=O)[C@H](CC(N)=O)NC(=O)[C@H](Cc1ccc(O)cc1)NC(=O)[C@H](CS)NC(=O)[C@H](CCCNC(=N)N)NC(=O)[C@H](CCCNC(=N)N)NC(=O)[C@H](C)NC(=O)[C@H](CCC(=O)O)NC(=O)[C@H](CC(=O)O)NC(=O)[C@H](CO)NC(=O)[C@H](CCC(=O)O)NC(=O)[C@H](C)NC(=O)[C@H](CCCNC(=N)N)NC(=O)[C@H](C)N)C(=O)N[C@H](C(=O)N[C@@H](CC(N)=O)C(=O)N[C@@H](CCCNC(=N)N)C(=O)NCC(N)=O)[C@@H](C)O [β1EC2-Lin] (H-ARAESDEARRCYNDPKCCDFVTNRG-NH2; N-terminus and C-terminus assumed)
anti-β1EC2-antibodies; peptides 1.0 mg/kg/month i.v., bisoprolol 15 mg/kg/day orally (S1 Fig., Fig. 2F)
  effect on anti-β1EC2-titers, in words: only negligible effects
[2]; [8]
  -dP/dt (relaxation): 4857 ±157 mmHg/s
  HF (heart frequence): 210 ±6 bpm
  LVEDP (LV end-diastolic pressure): 14.5 ±1.2 mmHg
  LVSP (maximal systolic LV-pressure): 116 ±4 mmHg
[3]; [8]
  Heart, relative (wet) weight: 2.88 ± 0.24 mg/g
  Kidney L, relative (wet) weight: 2.32 ± 0.14 mg/g
  Kidney R, relative (wet) weight: 2.36 ± 0.20 mg/g
  Liver, relative (wet) weight: 22.64 ± 0.59 mg/g
  Lung, relative (wet) weight: 2.77 ± 0.12 mg/g
  Spleen, relative (wet) weight: 1.49 ± 0.09 mg/g
  Weight (body weight): 598 ± 38 g
[4]; [8]
  IVS (thickness of the inter-ventricular septum): 1.5 ±0.1 mm
  LVA (total LV-area): 71.2 ±3.5 mm2
  LVCA (LV-cavity area): 32.7 ±1.3 mm2
  LVWA (LV wall area): 38.5 ±2.4 mm2
  PW (posterior wall thickness): 1.6 ±0.1 mm
[5]
  cardiomyopathic phenotype, in words: failed to elicit any cardiopotective effects
